From patent US4703107A, “Water-soluble acylated derivatives of peptides or amino acids, their preparation and their use” (priority 1983, dated 1987)
≈ marks a conversion by molar mass, not a printed value. Like-named read-outs stand apart in the source and are kept apart here. Where a SMILES comes first, the peptide text is derived from it. The star is where a group is joined. Doxorubicin(3'-N) = COc1cccc2c1C(=O)c1c(O)c3c(c(O)c1C2=O)C[C@@](O)(C(=O)CO)C[C@@H]3O[C@H]1C[C@H](N*)[C@H](O)[C@H](C)O1; dGluconoyl = O=C([C@H](O)[C@@H](O)[C@H](O)[C@H](O)CO)*; NH(9-Et-carbazol-3-yl) = CCn1c2ccccc2c2cc(N*)ccc21; AMC = Cc1cc(=O)oc2cc(N*)ccc12

What was measured:
[1] = Solubility in distilled water / aqueous solution; format: physicochemical; conditions: for solubility in distilled water: at 20° C.
Procedure: The solubility of the PHA-L-Ala-L-Ala-L-Pro-L-Ala-AEC is greater than 80 mg/ml in distilled water or a buffer with a pH between 3 and 9.
The solubility of this compound in distilled water is 2.0 mM/l at 20° C.
The influence of the length of the N-acylating polyhydroxyalcanoyl group on the water solubility of fluorogenic substrates is shown in Table III in the case of a chymotrypsin specific substrate PHA-L-Ala-L-Ala-L-Phe-7-amido-4-methylcoumarin.

[2] = pH 8.1, aqueous buffer
[3] = Table IV; same values as Table I
[4] = test system: leucemic cells L1210, Lewis lung carcinoma "3LL"; test: Penetration into and death of tumor cells; format: cell-based
[5] = Table III, water solubility, 20° C., read-out: SOLUBILITY (mM AT 20° C.)

SMILES | solubility [1, 5] | solubility in distilled water [1] | also measured
CC(=O)N[C@@H](C)C(=O)N[C@@H](C)C(=O)N[C@@H](Cc1ccccc1)C(=O)Nc1ccc2c(C)cc(=O)oc2c1 [AcAlaAlaPheAMC, reference compound] (Ac-Ala-Ala-Phe-{AMC}) | 0.2 mM |  | 
CCn1c2ccccc2c2cc(NC(=O)[C@H](CCCCN)NC(=O)[C@H](Cc3ccccc3)NC(=O)[C@@H](NC(=O)[C@H](O)[C@@H](O)[C@H](O)[C@H](O)CO)C(C)C)ccc21 [GlcA--Val--Phe--Lys--AEC] |  |  | solubility [2]: 165000 µM (≈ 126 mg/mL); solubility [3]: 165000 µM (≈ 126 mg/mL)
COc1cccc2c1C(=O)c1c(O)c3c(c(O)c1C2=O)C[C@@](O)(C(=O)CO)C[C@@H]3O[C@H]1C[C@H](NC(=O)[C@@H](N)CC(C)C)[C@H](O)[C@H](C)O1 [L-Leu-Adriamycine, L-Leu-Adriamycin] |  |  | penetration into tumor cells ([4]; leucemic cells L1210, Lewis lung carcinoma 3LL): penetrates the tumor cells; death of tumor cells ([4]; tumor cells): causes the death of these cells
CCn1c2ccccc2c2cc(NC(=O)[C@H](C)NC(=O)[C@@H]3CCCN3C(=O)[C@H](C)NC(=O)[C@H](C)NC(=O)[C@H](O)[C@@H](O)[C@H](O)[C@H](O)CO)ccc21 [PHA-L-Ala-L-Ala-L-Pro-L-Ala-AEC] (dGluconoyl-AAPA-{NH(9-Et-carbazol-3-yl)}) |  |  | solubility ([1]; aqueous with cosolvent or surfactant or cyclodextrin, in distilled water or a buffer with a pH between 3 and 9, read-out: solubility): > 80 mg/mL
COc1cccc2c1C(=O)c1c(O)c3c(c(O)c1C2=O)C[C@@](O)(C(=O)CO)C[C@@H]3O[C@H]1C[C@H](NC(=O)[C@H](CC(C)C)NC(=O)[C@H](CCCNC(=N)N)NC(=O)[C@@H]2CCCN2C(=O)[C@H](Cc2ccccc2)NC(=O)[C@H](O)[C@@H](O)[C@H](O)[C@H](O)CO)[C@H](O)[C@H](C)O1 [PHA-L-Phe-L-Pro-L-Arg-L-Leu-Adriamycin] (dGluconoyl-FPRL-{Doxorubicin(3'-N)}) |  |  | solubility in water ([1]; water): soluble in water
Cc1cc(=O)oc2cc(NC(=O)[C@H](Cc3ccccc3)NC(=O)[C@H](C)NC(=O)[C@H](C)NC(=O)[C@H](O)[C@@H](O)[C@H](O)[C@H](O)CO)ccc12 [gluconoyl-L-Ala-L-Ala-L-Phe-AMC] | 2.4 mM | 2.4 mM/l | 
Cc1cc(=O)oc2cc(NC(=O)[C@H](Cc3ccccc3)NC(=O)[C@H](C)NC(=O)[C@H](C)NC(=O)C(O)C(O)C(O)C(O)C(O)C(O)CO)ccc12 (stereo partly drawn) [glucooctanoyl-L-Ala-L-Ala-L-Phe-AMC] | 3.2 mM | 3.2 mM/l | 
Cc1cc(=O)oc2cc(NC(=O)[C@H](Cc3ccccc3)NC(=O)[C@H](C)NC(=O)[C@H](C)NC(=O)[C@H](O)[C@H](O)[C@H](O)CO)ccc12 [ribonoyl-L-Ala-L-Ala-L-Phe-AMC] | 2 mM | 2.0 mM/l | 
